Reference: patent US7776862B2, “Pyridyl and phenyl substituted piperazine-piperidines with CXCR3 antagonist activity” (Schering Corporation, priority 2005, dated 2010)

molecular target: T1, human CXCR3 (N-delta 4) (Homo sapiens, UniProt P49682); assay: Human CXCR3 (N-delta 4) scintillation proximity assay (SPA), [125I] IP-10 binding; conditions: IC50 rating; Ba/F3-hCXCR3 (N-delta 4) membranes, 25 pM [125I] IP-10
T1 construct: CD8 leader; Flag tag; expressed in transfected cells; membranes used
T1 sequence (P49682 5-368 limits assumed): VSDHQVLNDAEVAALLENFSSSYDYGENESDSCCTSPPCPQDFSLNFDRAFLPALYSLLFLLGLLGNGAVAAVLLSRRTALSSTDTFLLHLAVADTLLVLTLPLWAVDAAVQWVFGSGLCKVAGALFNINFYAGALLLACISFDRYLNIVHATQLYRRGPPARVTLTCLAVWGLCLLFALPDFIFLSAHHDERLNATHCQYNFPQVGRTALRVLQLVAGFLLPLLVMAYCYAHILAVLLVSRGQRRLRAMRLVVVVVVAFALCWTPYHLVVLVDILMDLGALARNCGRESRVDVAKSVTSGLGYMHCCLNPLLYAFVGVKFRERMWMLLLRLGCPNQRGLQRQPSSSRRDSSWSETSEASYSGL
Source text: The inventive compounds can readily be evaluated to determine activity at the CXCR3 receptors by known methods, such as, for example, development of a human CXCR3 (N-delta 4) Binding Assay.
Cloning and expression of human CXCR3 (N-delta 4):
The DNA encoding human CXCR3 was cloned by PCR using human genomic DNA (Promega, Madison, Wis.) as a template. The PCR primers were designed based on the published sequence of human orphan receptor GPR9 (1) with incorporated restriction sites, a Kozak consensus sequence, CD8 leader and Flag tag. The PCR product was subcloned into the mammalian expression vector pME18Sneo, a derivative of the SR-alpha expression vector (designated as pME18Sneo-hCXCR3 (N-delta 4).
IL-3-dependent mouse pro-B cells Ba/F3 were transfected by electroporation in 0.4 ml Dulbecco's PBS containing 4×10^6 cells with 20 μg of pME18Sneo-hCXCR3 (N-delta 4) plasmid DNA. Cells were pulsed at 400 Volts, 100 OHMs, 960 μFd. The transfected cells were under selection with 1 mg/ml G418 (Life Technologies, Gaithersburg, Md.). […] IP-10 (NEN Life Science Products, Boston, Mass.).
Preparation of Ba/F3-hCXCR3 (N-delta 4) membranes:
Ba/F3 cells expressing human CXCR3 (N-delta 4) were pelleted and resuspended in the lysis buffer containing 10 mM HEPES, pH 7.5 and Complete® protease inhibitors (1 tablet per 100 ml) (Boehringer Mannheim, Indianapolis, Ind.) at a cell density of 20×10^6 cells per ml. […] Large cellular debris was removed by centrifugation at 1,000×g. Cell membrane in the supernatant was sedimented at 100,000×g. The membrane was resuspended in the lysis buffer supplemented with 10% sucrose and stored at −80° C. Total protein concentration of the membrane was determined by BCA method from Pierce (Rockford, Ill.).
Human CXCR3 (N-delta 4) scintillation proximity assay (SPA):
The beads were spun down, washed once, resuspended in the binding buffer and transferred to a 96-well Isoplate (Wallac, Gaithersburg, Md.). […] IP-10 with tested compounds in a series of titration were added to start the reaction.

IC50, 0.025 to 0.1 µM:
O=C(NCc1ccc(F)cc1F)c1cnc(N2CCN(C3CCN(Cc4ccc(Cl)cc4)CC3)CC2)c(Cl)c1 [compound 97], O=C(NCc1ccc(C(F)(F)F)cc1)c1cnc(N2CCN(C3CCN(Cc4ccc([N+](=O)[O-])cc4)CC3)CC2)c(Cl)c1 [compound 98], O=C(NCc1ccc(Br)cc1)c1cnc(N2CCN(C3CCN(Cc4ccc(F)c(F)c4)CC3)CC2)c(Cl)c1 [compound 99], O=C(NCc1cccc(F)c1)c1cnc(N2CCN(C3CCN(Cc4ccc(Br)cc4)CC3)CC2)c(Cl)c1 [compound 100], N#Cc1ccc(C(=O)N2CCC(N3CCN(c4ncc(C(=O)NCc5ccc(Cl)cc5)cc4Cl)CC3)CC2)cc1 [compound 101], O=C(NCc1ccc(F)c(Cl)c1)c1cnc(N2CCN(C3CCN(Cc4ccc(F)cc4F)CC3)CC2)c(Cl)c1 [compound 102], COc1ccc(CN2CCC(N3CCN(c4ncc(C(=O)NCc5ccc(Cl)cc5)cc4Cl)CC3)CC2)cc1 [compound 103], CC(NC(=O)c1cnc(N2CCN(C3CCN(Cc4ccc(Cl)cc4)CC3)CC2)c(Cl)c1)c1ccccc1 (centres unmarked) [compound 104], O=C(NCc1ccc(Cl)cc1F)c1cnc(N2CCN(C3CCN(Cc4ccc(Br)cc4)CC3)CC2)c(Cl)c1 [compound 105], O=C(NCc1ccc(F)cc1)c1cnc(N2CCN(C3CCN(Cc4ccc(F)c(F)c4)CC3)CC2)c(Cl)c1 [compound 106], N#Cc1ccc(CN2CCC(N3CCN(c4ncc(C(=O)NCc5ccc(F)c(Cl)c5)cc4Cl)CC3)CC2)cc1 [compound 107], O=C(NCc1ccc(F)c(Cl)c1)c1cnc(N2CCN(C3CCN(Cc4ccc(Br)cc4)CC3)CC2)c(Cl)c1 [compound 108], O=C(NCc1ccc(Br)cc1)c1cnc(N2CCN(C3CCN(Cc4ccc(F)cc4)CC3)CC2)c(Cl)c1 [compound 109], COc1ccc(CN2CCC(N3CCN(c4ncc(C(=O)NCc5ccc(Cl)cc5F)cc4Cl)CC3)CC2)cc1 [compound 111], O=C(NCCOc1ccccc1)c1cnc(N2CCN(C3CCN(Cc4ccc([N+](=O)[O-])cc4)CC3)CC2)c(Cl)c1 [compound 112], O=C(NCc1ccc(F)cc1)c1cnc(N2CCN(C3CCN(Cc4ccc(Br)cc4)CC3)CC2)c(Cl)c1 [compound 113], N#Cc1ccc(CN2CCC(N3CCN(c4ncc(C(=O)NCc5ccc(Br)cc5)cc4Cl)CC3)CC2)cc1 [compound 114], O=C(NCc1ccc(Cl)c(Cl)c1)c1cnc(N2CCN(C3CCN(Cc4ccc(Cl)c(F)c4)CC3)CC2)c(Cl)c1 [compound 115], COc1ccc(CN2CCC(N3CCN(c4ncc(C(=O)NCc5ccc(F)c(F)c5)cc4Cl)CC3)CC2)cc1 [compound 116], COc1ccc(CN2CCC(N3CCN(c4ncc(C(=O)NCc5ccc(F)c(Cl)c5)cc4Cl)CC3)CC2)cc1 [compound 117], O=C(NCc1cccc(Cl)c1)c1cnc(N2CCN(C3CCN(Cc4ccc(F)c(F)c4)CC3)CC2)c(Cl)c1 [compound 118], O=C(NCc1ccc(Cl)cc1Cl)c1cnc(N2CCN(C3CCN(Cc4ccc(F)cc4)CC3)CC2)c(Cl)c1 [compound 119], N#Cc1ccc(CN2CCC(N3CCN(c4ncc(C(=O)NCc5ccc(Cl)cc5F)cc4Cl)CC3)CC2)cc1 [compound 120], O=C(NCc1ccc(F)c(F)c1)c1cnc(N2CCN(C3CCN(Cc4ccc(Cl)c(F)c4)CC3)CC2)c(Cl)c1 [compound 121], CC1CN(C2CCN(Cc3ccc(Cl)cc3)CC2)CCN1c1ncc(C(=O)NCc2ccc(Cl)c(Cl)c2)cc1Cl (centres unmarked) [compound 122], O=C(NCCOc1ccccc1)c1cnc(N2CCN(C3CCN(Cc4ccc(Cl)c(F)c4)CC3)CC2)c(Cl)c1 [compound 123], COc1ccc(CN2CCC(N3CCN(c4ncc(C(=O)NCc5ccc(Cl)c(Cl)c5)cc4Cl)CC3)CC2)cc1 [compound 124], O=C(NCc1ccc(Cl)cc1F)c1cnc(N2CCN(C3CCN(Cc4ccc(Cl)cc4)CC3)CC2)c(Cl)c1 [compound 125], N#Cc1ccc(CN2CCC(N3CCN(c4ncc(C(=O)NCc5ccc(Cl)cc5)cc4Cl)CC3)CC2)cc1 [compound 126], O=C(NCc1ccc(F)cc1F)c1cnc(N2CCN(C3CCN(Cc4ccc(Cl)c(F)c4)CC3)CC2)c(Cl)c1 [compound 127], O=C(NCc1ccc(F)cc1F)c1cnc(N2CCN(C3CCN(Cc4ccc([N+](=O)[O-])cc4)CC3)CC2)c(Cl)c1 [compound 128], N#Cc1ccc(CN2CCC(N3CCN(c4ncc(C(=O)NCc5ccc(F)c(F)c5)cc4Cl)CC3)CC2)cc1 [compound 129], CC1CN(C2CCN(Cc3ccc(Cl)cc3)CC2)CCN1c1ncc(C(=O)NCCOc2ccccc2)cc1Cl (centres unmarked) [compound 130], O=C(NCc1ccc(Br)cc1)c1cnc(N2CCN(C3CCN(Cc4ccc([N+](=O)[O-])cc4)CC3)CC2)c(Cl)c1 [compound 131], O=C(NCc1ccc(F)cc1F)c1cnc(N2CCN(C3CCN(Cc4ccc(F)c(F)c4)CC3)CC2)c(Cl)c1 [compound 132], O=C(NCc1ccc(Cl)cc1Cl)c1cnc(N2CCN(C3CCN(Cc4ccc(Cl)c(F)c4)CC3)CC2)c(Cl)c1 [compound 133], O=C(NCc1ccc(Cl)cc1F)c1cnc(N2CCN(C3CCN(Cc4ccc(F)cc4)CC3)CC2)c(Cl)c1 [compound 134], O=C(NCc1ccc(Cl)c(Cl)c1)c1cnc(N2CCN(C3CCN(Cc4ccc(F)cc4)CC3)CC2)c(Cl)c1 [compound 135], O=C(NCc1ccc(Br)cc1)c1cnc(N2CCN(C3CCN(Cc4ccc(Cl)cc4)CC3)CC2)c(Cl)c1 [compound 136], COc1ccc(CN2CCC(N3CCN(c4ncc(C(=O)NCc5ccc(Br)cc5)cc4Cl)CC3)CC2)cc1 [compound 137], CNC(=O)c1cnc(N2CCN(C3CCN(Cc4ccc(Cl)cc4)CC3)CC2C)c(Cl)c1 (centres unmarked) [compound 138], O=C(NCc1ccc(F)cc1)c1cnc(N2CCN(C3CCN(Cc4ccc(Cl)c(F)c4)CC3)CC2)c(Cl)c1 [compound 139], O=C(NCc1ccc(Cl)cc1F)c1cnc(N2CCN(C3CCN(Cc4ccc(F)c(F)c4)CC3)CC2)c(Cl)c1 [compound 140], O=C(NCc1ccc(Cl)cc1Cl)c1cnc(N2CCN(C3CCN(Cc4ccc(F)c(F)c4)CC3)CC2)c(Cl)c1 [compound 141], O=C(NCc1ccc(Cl)cc1Cl)c1cnc(N2CCN(C3CCN(Cc4ccc([N+](=O)[O-])cc4)CC3)CC2)c(Cl)c1 [compound 142], CC1CC(N2CCN(c3ncc(C(=O)NCc4ccc(Cl)c(Cl)c4)cc3Cl)CC2)CCN1Cc1ccc(C#N)cc1 (centres unmarked) [compound 143], O=C(NCc1ccc(F)c(Cl)c1)c1cnc(N2CCN(C3CCN(Cc4ccc(F)cc4)CC3)CC2)c(Cl)c1 [compound 144], N#Cc1ccc(CN2CCC(N3CCN(c4ncc(C(=O)NCc5ccc(Cl)c(Cl)c5)cc4Br)CC3)CC2)cc1 [compound 145], CC[C@H]1CN(c2ncc(C(N)=O)cc2Cl)CCN1C1CCN(C(=O)c2ccc(Cl)cc2N2CCOC2=O)CC1 [compound 146], O=C(NCc1ccc(Cl)c(Cl)c1)c1cnc(N2CCN(C3CCN(Cc4ccc(F)c(F)c4)CC3)CC2)c(Cl)c1 [compound 147]
